System: 266 human PDZ domains (PDZome)
Test: Holdup assay (chromatographic retention, PDZome-binding profile, BI)
Design: key to maximal BI / Max BI / BI: binding intensity: 0.00 = no binding, 1.00 = maximal binding
Description: The holdup method is a chromatographic approach in solution developed in our group that allows to measure the binding strength of a peptide, attached to a resin, against a library of domains of a same family. We initially proposed this method to explore the interaction between PBM peptides and the human PDZ domains. Briefly, a soluble cell lysate containing individually overexpressed PDZ domain is incubated until equilibrium with a calibrated amount of streptavidin-resin saturated either with the target biotinylated PBM peptide or with biotin as a reference. The flow-throughs containing the unbound protein fraction are recovered by filtration and loaded on a capillary electrophoresis instrument to quantify the amount of remaining free PDZ. The stronger the steady-state depletion of the PDZ domain in the flow-through as compared to the reference, the stronger the PDZ/PBM binding interaction. The assay is particularly suited to quantitatively evaluate and compare large numbers of interactions. This method delivers, for each PBM/PDZ pair, a "binding intensity" (BI), whose value can in principle range from 0.00 (no binding event detected) to 1.00 (maximal binding event). The approach has been automated and the human PDZ library was recently extended to the complete 266 PDZ domains known in human proteome. […] The high accuracy and efficiency of the holdup assay have been validated previously. Very recently, a manual version of the holdup assay with purified samples and using widespread benchtop equipment has been implemented and has proven to be reliable.
The 266 PDZ domains that constitute the PDZ library (“PDZome V.2”) used in the present work were produced using constructs with optimized boundaries as described previously. All the genes were fused to Maltose-Binding Protein (MBP) or Thioredoxin (THR) tag often used to facilitate the solubilisation of the over-expressed protein, by cloning them into the pETG41A or pETG20A plasmid, respectively. […] The expressed tag-PDZ concentrations were quantified using capillary gel electrophoresis and cell lysates were diluted to reach approximately 5 μM tag-PDZ before freezing in 96-well plates. A detailed protocol of the PDZ library production, expression and benchmarking can be found in [32]. PDZ domains are named according to their originating protein name followed by the PDZ number (e.g. NHERF1-1 as the first PDZ domain of the NHERF1 protein).
The holdup assay was performed on a Tecan freedom Evo200 robot with 384-well plates in singlicate for the three 11-mer PTEN variants and the 13-mer PTEN peptide as described in [31, 32]. Briefly, prior to interaction assay, 2.5 μL of streptavidin resin was saturated in each well with 20 μL of biotinylated PBM peptides (42 μM) and then washed twice with an excess of free biotin, while the reference resin was incubated only with biotin. Right before the holdup experiment, the PDZ library was spiked with an internal standard of lysozyme. Then, the biotin- or PBM-saturated resin was incubated, each in a distinct well of a 384-well plate, with complete cell lysates diluted so that the concentration of the tag-PDZ present in the crude extract is adjusted at 4 μM. After a sufficient time to reach complex equilibrium (15 min.), a fast and mild filtration step is performed and the tag-PDZ concentrations were measured by capillary electrophoresis instrument (LabChip GXII, PerkinElmer, Massachusets, USA). Standard markers were used to convert migration time into molecular weight on the LabChip software and inappropriate molecular weight markers were corrected or excluded.
Holdup data quality check and processing […]

CC[C@H](C)[C@H](NC(=O)[C@H](CCC(N)=O)NC(=O)[C@@H](NC(=O)[C@H](Cc1c[nH]cn1)NC(=O)[C@H](CCC(N)=O)NC(=O)[C@H](CC(=O)O)NC(=O)[C@H](CCC(=O)O)NC(=O)[C@H](CC(=O)O)NC(=O)CCC(=O)NCCCOCCOCCOCCCNC(=O)CCCC[C@@H]1SC[C@@H]2NC(=O)N[C@@H]21)[C@@H](C)O)C(=O)N[C@H](C(=O)N[C@@H](CCCCNC(C)=O)C(=O)N[C@H](C(=O)O)C(C)C)[C@@H](C)O [PTEN_Ac]
number of additional new PDZ partners not detected for PTEN_11 (BI>0.20, compared with PTEN_11): at least 20 | BI (PDZ domain MPDZ-2): 0.353 | BI (PDZ domain MPDZ-3): 0.002 | BI (PDZ domain MPDZ-4): 0.029 | BI (PDZ domain MPDZ-5): -0.014 | BI (PDZ domain MPDZ-6): -0.058 | BI (PDZ domain MPDZ-7): 0.624 | BI (PDZ domain MPDZ-8): 0.172 | BI (PDZ domain MPDZ-9 (gene NHERF2, 2)): 0.016 | BI (PDZ domain MPDZ-12): 0.019 | BI (PDZ domain MPDZ-13): 0.351 | BI (PDZ domain MPP1-1): -0.054 | BI (PDZ domain MPP3-1): -0.063 | BI (PDZ domain MPP4-1): -0.043 | BI (PDZ domain MPP5-1): -0.048 | BI (PDZ domain MPP6-1): -0.03 | BI (PDZ domain MPP7-1): -0.045 | BI (PDZ domain NHERF1-2): 0.046 | BI (PDZ domain NHERF3-1): 0.45 | BI (PDZ domain NHERF3-2): 0.105 | BI (PDZ domain NHERF3-3): 0.021 | BI (PDZ domain NHERF3-4): -0.017 | BI (PDZ domain NHERF4-1): -0.007 | BI (PDZ domain NHERF4-2): 0.014 | BI (PDZ domain NHERF4-3): -0.031 | BI (PDZ domain NHERF4-4): -0.03 | BI (PDZ domain NOS1-1): 0.106 | BI (PDZ domain PARD3-1, first of two lines so named (r186)): 0.035 | BI (PDZ domain PARD3-1, second of two lines so named (r187)): -0.073 | BI (PDZ domain PARD3-2): 0.074 | BI (PDZ domain PARD3B-1): -0.205 | BI (PDZ domain PARD3B-2): -0.04 | BI (PDZ domain PARD3B-3): -0.007 | BI (PDZ domain PARD6A-1): 0.007 | BI (PDZ domain PARD6G-1): -0.034 | BI (PDZ domain PCLO-1): -0.088 | BI (PDZ domain PDLIM1-1): -0.087 | BI (PDZ domain PDLIM3-1): -0.026 | BI (PDZ domain PDLIM4-1): -0.03 | BI (PDZ domain PDLIM5-1): -0.022 | BI (PDZ domain PDLIM7-1): -0.025 | BI (PDZ domain PDZD2-1): -0.095 | BI (PDZ domain PDZD2-2): 0.195 | BI (PDZ domain PDZD2-3): 0.017 | BI (PDZ domain PDZD2-5): -0.091 | BI (PDZ domain PDZD2-6): -0.026 | BI (PDZ domain PDZD4-1): 0.085 | BI (PDZ domain PDZD7-1): -0.051 | BI (PDZ domain PDZD7-3): 0.901 | BI (PDZ domain PDZD8-1): -0.202 | BI (PDZ domain PDZD9-1): -0.019 | BI (PDZ domain PDZD11-1): -0.017 | BI (PDZ domain PDZRN3-1): -0.019 | BI (PDZ domain PDZRN3-2): 0.016 | BI (PDZ domain PDZRN4-1): -0.064 | BI (PDZ domain PDZRN4-2): 0.099 | BI (PDZ domain PICK1-1): 0.052 | BI (PDZ domain PPP1R9A-1): 0.066 | BI (PDZ domain PPP1R9B-1): -0.044 | BI (PDZ domain PREX1-1): -0.014 | BI (PDZ domain PREX2-2): 0.096 | BI (PDZ domain PRX-1): -0.021 | BI (PDZ domain PSCDBP-1): -0.005 | BI (PDZ domain PSMD9-1): -0.007 | BI (PDZ domain PTPN3-1): 0.05 | BI (PDZ domain PTPN4-1): 0.02 | BI (PDZ domain PTPN13-1): -0.024 | BI (PDZ domain PTPN13-3): -0.028 | BI (PDZ domain PTPN13-5): -0.046 | BI (PDZ domain RADIL-1): 0.522 | BI (PDZ domain RAPGEF2-1): -0.076 | BI (PDZ domain RAPGEF6-1): 0.035 | BI (PDZ domain RGS3-1): -0.001 | BI (PDZ domain RGS12-1): 0.033 | BI (PDZ domain RHPN2-1): -0.044 | BI (PDZ domain RIMS1-1): -0.02 | BI (PDZ domain RIMS2-1): -0.022 | BI (PDZ domain SCRIB-2): 0.163 | BI (PDZ domain SCRIB-4): 0.058 | BI (PDZ domain SDCBP2-2): -0.013 | BI (PDZ domain SDCBP-2): -0.05 | BI (PDZ domain SHANK1-1): 0.152 | BI (PDZ domain SHANK2-1): 0.209 | BI (PDZ domain SHANK3-1): 0.235 | BI (PDZ domain SHROOM2-1): -0.072 | BI (PDZ domain SHROOM3-1): -0.048 | BI (PDZ domain SHROOM4-1): -0.073 | BI (PDZ domain SIPA1L2-1): -0.001 | BI (PDZ domain SIPA1L3-1): -0.046 | BI (PDZ domain SNTA1-1): 0.41 | BI (PDZ domain SNTB1-1): 0.548 | BI (PDZ domain SNTG1-1): 0.345 | BI (PDZ domain SNTG2-1): -0.077 | BI (PDZ domain STXB4-1): -0.072 | BI (PDZ domain SYNJ2BP-1): 0.023 | BI (PDZ domain SYNP2-1): 0.005 | BI (PDZ domain SYNPO2L-1): 0.063 | BI (PDZ domain TIAM1-1): -0.072 | BI (PDZ domain TIAM2-1): -0.008 | BI (PDZ domain TJP1-1): 0.198 | number of PDZ domains identified as potential binders (BI>0.20) (holdup, singlicate, threshold BI>0.20): 43 PDZ domains | maximal BI (holdup, singlicate, highest BI in the PDZome profile, BI standard error ~0.07): 0.90 | binding of several PDZ domains (in words) (including several ones from MAGI and NHERF): detectably bound | Max BI (maximum over PDZome): 0.90 | number of partners detected for PTEN_Ac and not for PTEN_KR (over a total of 43): 15
